Measured values reported in patent US4080466A, “Pharmaceutical compositions containing 4-hydroxyl-1,3-dithiolan-2-ylidene malonates” (Nihon Nohyaku Co., Ltd., priority 1976, dated 1978).
Entries after “also recorded” stand apart in the source; their conditions may differ.

What was measured:
[1] = system: fatty liver induced by ethionine; experiment: Effect on Fatty Liver (ethionine); format: in vivo, mouse (dd-strain); conditions: 250 mg/kg oral, 24 h, 10 animals
Source text: But, the fatty liver is grouped into a couple of patterns from the mechanism of lipid accumulation or metabolism of lipoprotein in the liver. Ethionine is a typical example which induces first pattern of fatty liver. It inhibits RNA and protein synthesis and destructs polysome of the liver cell. Fatty liver is induced by inhibition of the protein synthesis and disturbance of lipoprotein secretion.
Usually, fatty liver is closely related to the accumulation of triglyceride in the liver. In the present example, the degree of fatty liver and protective or therapeutic effect against the fatty liver was evaluated by measurement of triglyceride content in the liver. Methods:
The compounds of this invention and methionine were independently dissolved or suspended into olive oil and administered orally to 4 week-old male mouse (dd-strain) at the dose of 250 mg/kg. One hour before it, simultaneously to it, or one hour after it, ethionine dissolved in equimolar NaOH solution was administered intraperitoneally at the dose of 200 mg/kg. Twenty four hours after the administration of ethionine, the animals were sacrificed and triglyceride content in the liver was determined by chromotropic acid method.

bile flow = experiment: Cholagogic Action: effect on bile flow; format: in vivo, rats (SD-JCL strain); conditions: 200 mg/kg oral; for Bile flow: before treatment = 100; for Quantity of total excreted bile relative to control: 5 hours after administration
Description: (§1) Drugs as choleresis are used for patients to improve bile flow. In the present example, the effect of the compound of the invention on the quantities of bile and biliary salt is investigated. Methods:
(§2) The male rats (4 week-aged, SD-JCL strain) were anesthetized with sodium pentobarbital (37.5 mg/kg, intraperitoneal injection). The abdominal cavity was opened through a midline incision. The common bile duct was catheterized with polyethylene tube o.d. 0.8 mm. The catheter was brought to the outside through the abdominal incision would prior to closing. Bile was collected from the catheter continuously with time intervals of one hour. The quantity of bile produced in one hour was determined by weighing and that of biliary salt was determined by enzymatic method (Ikagaku Jikkenho Koza 1B, Biological Constituents II, edited by Tamio YAMAKAWA). The amount of biliary salt was represented in the term of cholic acid equivalent.
(§3) In the representation of the results, the quantities of bile and biliary salt produced in one hour prior to the administration of drug were taken as 100. The compound of this invention was orally administered at the dose of 200 mg/kg. As reference, anethol trithion was used.

[2] = system: fatty liver induced by carbon tetrachloride; experiment: Therapeutic Effect on Fatty Liver (carbon tetrachloride); format: in vivo, rats (SD strain); conditions: 10 days; for Degree of fatty liver (histopathological examination): one symbol per animal
Description: Methods: […] The treated animals were left for 3 days after the last administration to maximize the manifestation of fatty liver. […] It was orally given everyday for 10 days at the dose of 50 or 250 mg/kg. On the 11th day, the animals were sacrificed. The therapeutic effect was evaluated by determining the content of liquid in the liver (triglyceride and total lipid) and examining the histopathological changes. Triglyceride and total lipid were determined colorimetrically by chromotropic acid method and Bragdon's oxidation method, respectively. Indices for the histopathological change is as follows: […]

[3] = system: chronic liver damage induced by thioacetamide; experiment: Therapeutic Effect on Chronic Liver Damage (thioacetamide), BSP test; format: in vivo, rats (Spraque Dawley strain); conditions: normal diet + 0.2% of compound after 12 times TAA 100 mg/kg
Description: In the tests of this Example, TAA was repeatedly administered to animals to prepare test animals suffering from somewhat chronic liver damages, and then the present compounds were administered thereto to know whether or not the compounds were effective against chronic hepatitis.
The degree of the liver damage and the therapeutic effects of the compounds were evaluated according to BSP test. The BSP test is a method in which BSP (sulfobromophthalein sodium), a dye known to be quickly metabolized in and excreted from the liver, is intravenously injected into animals and, after a definite period of time, the blood is taken out to measure the amount of BSP remaining in the plasma. In case the animals are suffering from the lever damage, the dye will remain, according to the degree of the damage, at the stage where a major portion of BSP metabolized and excreted in the case of normal animals.
Five groups of rats (Spraque Dawley strain) were treated as follows:
Group A: The rats were orally administered with 100 mg/kg of thioacetamide,at 3 days intervals for 36 days (12 times of the administration), then were submitted for 10 days to a normal diet.
Group B: The rats were orally administered with 100 mg/kg of thioacetamide at 3 days intervals for 36 days (12 times of the administration), then were submitted for 10 days to the normal diet + 0.2% of compound 4.
Group C: The rats were orally administered with 100 mg/kg of thioacetamide at 3 days intervals for 36 days (12 times of the administration), then were submitted for 10 days to the normal diet + 0.2% of compound 2.
Group D: The rats were orally administered with 100 mg/kg of thioacetamide at 3 days intervals for 36 days (12 times of the administration), then were submitted for 10 days to the normal diet + 0.2% of anethol trithion.
Group E: The rats were submitted to the normal diet as the control.
Five rats were sacrificed from each group at appropriate intervals for BSP (sulfobromophthalein) test, the results of which were shown as amounts (mg) of BSP remaining in 1 dl of plasma.

[4] = system: excretion of biliary salt; experiment: Cholagogic Action: effect on the excretion of biliary salt; format: in vivo, rats (SD-JCL strain); conditions: 200 mg/kg oral; for Excretion of biliary salt: before treatment = 100; for Amount of total excreted biliary salts relative to control: 5 hours after administration
Description: as §1, §2, §3

[5] = compound 1 hr before ethionine (200 mg/kg i.p.)
[6] = simultaneous with ethionine (0 hr)

`CC(C)OC(=O)C(C(=O)OC(C)C)=C1SCC(O)S1` (stereo not drawn) [Compound 2, Diisopropyl 4-hydroxy-1,3-dithiolan-2-ylidene malonate] showed a Triglyceride ([1]; compound 1 hr after ethionine) of 11.8 ± 0.39 mg/g-liver, a Triglyceride [1, 5] of 10.3 ± 0.96 mg/g-liver and a Triglyceride [1, 6] of 6.9 ± 0.38 mg/g-liver. It also gave a Bile flow (bile flow; 1 hour after treatment) of 112 ± 2.4, a Bile flow (bile flow; 2 hours after treatment) of 117 ± 6.8 and a Bile flow (bile flow; 3 hours after treatment) of 101 ± 7.0. For the same compound, the Bile flow (bile flow; 4 hours after treatment) was 97 ± 8.3, the “Quantity of total excreted bile relative to control” value (bile flow) was 1.13 times and the Bile flow (bile flow; 5 hours after treatment) was 80 ± 7.3. The Total lipid ([2]; 50 mg/kg oral) was 82.3 ± 15.1 mg/g-liver, the Triglyceride ([2]; 50 mg/kg oral) was 38.6 ± 8.5 mg/g-liver and the “Degree of fatty liver (histopathological examination)” value ([2]; 50 mg/kg oral) was “± ± + ± ± + ±”. For the same compound, the Total lipid ([2]; 250 mg/kg oral) was 68.3 ± 10.3 mg/g-liver, the Triglyceride ([2]; 250 mg/kg oral) was 21.6 ± 7.3 mg/g-liver and the “Degree of fatty liver (histopathological examination)” value ([2]; 250 mg/kg oral) was “- - ± ± ± ± -”. For the same compound, the “BSP remaining in plasma” value ([3]; 2 days) was 7.0 ± 2.8 mg/dL, the “BSP remaining in plasma” value ([3]; 5 days) was 3.1 ± 0.7 mg/dL and the “BSP remaining in plasma” value ([3]; 10 days) was 0.8 ± 0.2 mg/dL. For the same compound, the “Excretion of biliary salt” value ([4]; 1 hour after treatment) was 102 ± 7.3, the “Excretion of biliary salt” value ([4]; 2 hours after treatment) was 100 ± 5.8 and the “Excretion of biliary salt” value ([4]; 3 hours after treatment) was 106 ± 7.9. The “Excretion of biliary salt” value ([4]; 4 hours after treatment) was 97 ± 7.2, the “Amount of total excreted biliary salts relative to control” value [4] was 1.43 times and the “Excretion of biliary salt” value ([4]; 5 hours after treatment) was 90 ± 5.3.

Work on `CCOC(=O)C(C(=O)OC(C)C)=C1SCC(O)S1` (stereo not drawn) [Compound 4, Ethyl isopropyl 4-hydroxy-1,3-dithiolan-2-ylidene malonate] yielded a Triglyceride ([1]; compound 1 hr after ethionine) of 12.8 ± 0.92 mg/g-liver, a Triglyceride [1, 5] of 12.0 ± 0.77 mg/g-liver and a Triglyceride [1, 6] of 6.7 ± 0.43 mg/g-liver. The Bile flow (bile flow; 1 hour after treatment) was 108 ± 2.1, the Bile flow (bile flow; 2 hours after treatment) was 120 ± 7.7 and the Bile flow (bile flow; 3 hours after treatment) was 107 ± 6.8. The Bile flow (bile flow; 4 hours after treatment) was 98 ± 7.2, the “Quantity of total excreted bile relative to control” value (bile flow) was 1.11 times and the Bile flow (bile flow; 5 hours after treatment) was 88 ± 5.3. For the same compound, the Total lipid ([2]; 50 mg/kg oral) was 87.6 ± 7.2 mg/g-liver, the Triglyceride ([2]; 50 mg/kg oral) was 40.6 ± 8.2 mg/g-liver and the “Degree of fatty liver (histopathological examination)” value ([2]; 50 mg/kg oral) was “+ + + ++; also recorded: ± ± + ± ± ± +”. For the same compound, the Total lipid ([2]; 250 mg/kg oral) was 70.3 ± 7.7 mg/g-liver, the Triglyceride ([2]; 250 mg/kg oral) was 25.3 ± 4.2 mg/g-liver and the “Degree of fatty liver (histopathological examination)” value ([2]; 250 mg/kg oral) was “± ± ± - - - ±”. The “BSP remaining in plasma” value ([3]; 2 days) was 7.2 ± 1.2 mg/dL, the “BSP remaining in plasma” value ([3]; 5 days) was 3.6 ± 0.5 mg/dL and the “BSP remaining in plasma” value ([3]; 10 days) was 0.3 ± 0.1 mg/dL. For the same compound, the “Excretion of biliary salt” value ([4]; 1 hour after treatment) was 100 ± 7.2, the “Excretion of biliary salt” value ([4]; 2 hours after treatment) was 106 ± 7.8 and the “Excretion of biliary salt” value ([4]; 3 hours after treatment) was 98 ± 4.3. The “Excretion of biliary salt” value ([4]; 4 hours after treatment) was 90 ± 7.7, the “Amount of total excreted biliary salts relative to control” value [4] was 1.37 times and the “Excretion of biliary salt” value ([4]; 5 hours after treatment) was 82 ± 6.8.
